Measured values: patent publication US20150184144A1, “Liquid Enzyme Composition and Method for Enzyme Recovery” (Novozymes A/S, priority 2012, published 2015)

Test system: Lactobacillus (L. buchneri and L. para paracasei)
Test: Challenge screening of liquid enzyme formulations inoculated with Lactobacillus, viable cells (CFU)
Format: cell-based
Conditions: for CFU/ml After 1 week / CFU/ml After 2 weeks: 20-25° C.
Method: The antimicrobial effect may be determined by analyzing viable cells (CFU) of the liquid formulation after inoculating with Lactobacillus and incubating for 1-2 weeks at 20-25° C. and comparing with a similar liquid composition without the fatty acid or salt.
Challenge screening was performed by inoculating with 10^5-10^6 CFU/ml of Lactobacillus (L. buchneri and L. para paracasei), incubating for two weeks at 20-25° C., and analyzing viable cells (CFU) before and after inoculation and after 1 and 2 weeks.
The results are shown as CFU/ml (detection limit 100): […]

[1] = Example 5: 0.3% w/w inhibitor in glucoamylase formulation, pH 4.7
[2] = Example 5: glucoamylase (mixture of two variants) formulation, 48% w/w solids, pH 4.7, 0.3% w/w Na-octanoate or sodium benzoate instead, with or without 0.3% Na acetate trihydrate
[3] = Example 5: glucoamylase formulation, pH 4.7, 0.3% w/w Na-octanoate or sodium benzoate instead, with or without 0.3% Na acetate trihydrate
[4] = Example 1: Talaromyces glucoamylase formulation, 0.5% w/w Na-hexanoate, pH 5.0, detection limit 100

Compound	antimicrobial effect against Lactobacillus (in words) [1]	CFU/ml Before inoculation [2]	CFU/ml After inoculation [3] [CFU/ml]	CFU/ml After 1 week [3]	CFU/ml After 2 weeks [3]	antimicrobial effect against Lactobacillus (in words) (Example 1: 0.5% w/w Na-hexanoate in glucoamylase formulation, pH 5.0)	CFU/ml After 1 week [4]	CFU/ml After 2 weeks [4]	CFU/ml After inoculation (Example 1: Talaromyces glucoamylase formulation, 0.5% w/w Na-hexanoate, pH 5.0, inoculated with 10^5-10^6 CFU/ml) [CFU/ml]	CFU/ml Before inoculation (Example 1: Talaromyces glucoamylase formulation, 43% w/w solids (glucose), 0.5% w/w Na-hexanoate, pH 5.0, detection limit 100)	antimicrobial effect against Lactobacillus (in words) (Example 2: 0.5% w/w Na-hexanoate in xylanase and cellulase formulation, pH 4.6)	antimicrobial effect against Lactobacillus (in words) (Example 3: 0.5% w/w Na-hexanoate in cellulase and xylanase formulation, pH 4.55)	antimicrobial effect against Lactobacillus (in words) (Example 4: 0.5% w/w Na-octanoate in glucoamylase formulation, pH 5.0, compared with formate+sorbate+propionate)
O=C([O-])c1ccccc1.[Na+] [Benzoate, sodium benzoate, reference compound]	not effective	≦100 CFU/ml	170000	150000 CFU/ml	120000 CFU/ml	–	–	–	–	–	–	–	–
CCCCCC(=O)[O-].[Na+] [Na-hexanoate]	–	–	–	–	–	antimicrobial (germicidal) effect	≦100 CFU/ml	≦100 CFU/ml	180000	≦100 CFU/ml	antimicrobial (germicidal) effect	antimicrobial (germicidal) effect	–
CCCCCCCC(=O)[O-].[Na+] [Octanoate, Na-Caprylate (Na-octanoate)]	strong antimicrobial (germicidal) effect	≦100 CFU/ml	170000	≦100 CFU/ml	≦100 CFU/ml	–	–	–	–	–	–	–	strong antimicrobial (germicidal) effect
CC(=O)[O-].O.O.O.[Na+] [acetate, Na acetate trihydrate, reference compound]	not effective	–	–	–	–	–	–	–	–	–	–	–	–
